Here are results for 14 compounds from patent publication US4166182A, “6-N-Propyl-8-methoxymethyl or methylmercaptomethylergolines and related compounds” (priority 1978, dated 1979).

Counter-ions that a name gives are not always drawn. Like-named read-outs stand apart in the source and are kept apart here. Some results are limits rather than exact numbers.

In one experiment the test system is Parkinsonism. The following applies: in vivo; cited from earlier work.
Experiment [1] relates to prolactin. The following applies: cited from earlier work.
Experiment [2] concerns prolactin. In words: Inhibition of serum prolactin in reserpine-treated male rats. The class given is in vivo, Sprague-Dawley rat. The following applies: for Serum Prolactin Level: reserpine-pretreated, controls: Exp. 1 30.4 ± 3.4, Exp. 2 55.2 ± 4.1, Exp. 3 42.3 ± 7.3; for inhibition in vivo at 0.05 mg/kg: Rattus norvegicus, read-out: Percent Inhibition of Serum Prolactin. More on the design: Serum Prolactin Level: unit not given here. The protocol: Adult male rats of the Sprague-Dawley strain weighing about 200 g. were housed in an air-conditioned room with controlled lighting (lights on 6 a.m.-8 p.m.) and fed lab chow and water ad libitum. Each rat received an intraperitoneal injection of 2.0 mg. of reserpine in aqueous suspension 18 hours before administration of the ergoline derivative. The purpose of the reserpine was to keep prolactin levels uniformly elevated. The compounds under test were dissolved in 10 percent ethanol at a concentration of 10 mcg/ml. and were injected intraperitoneally at a standard dose of 50 mcg/kg. Each compound was administered to a group of 10 rats, and a control group of 10 intact males received an equivalent amount of 10 percent ethanol. One hour after treatment all rats were killed by decapitation, and 150 μl aliquots of serum were assayed for prolactin. The results were evaluated statistically using Student's "t" test to calculate the level of significance, "p", of the changes in prolactin level.

Experiment [3] deals with 6-hydroxydopamine-lesioned rats. In words: Turning behavior in 6-hydroxydopamine-lesioned (nigro-neostriatal-lesioned) rats. The class given is in vivo, rat. The following applies: for Latency of Effect: 1 mg./kg. (Table I); for responders at 1 mg/kg: Rattus norvegicus, read-out: % of Rats Exhibiting Turning Behavior. On the procedure:
In this test, nigro-neostriatal-lesioned rats are employed, which are prepared by the procedure of Ungerstedt and Arbuthnott, Brain Res, 24, 485 (1970). A compound having dopamine agonist activity causes the rats to turn in circles contralateral to the side of the lesion. After a latency period, which varies from compound to compound, the number of turns is counted over a 15-minute period.
The compounds were dissolved in water and the aqueous solution injected into the rat by the intraperitoneal route.

The subject of a further experiment is serotonin. As to the kind of experiment: Serotonin agonism.
For a further experiment, the system named is dopamine receptors. The following applies: cited from earlier work.
[4] abbreviates: 50 mcg/kg IP, 1 hour after treatment.

For `CC(C)C[C@H]1C(=O)N2CCC[C@H]2[C@]2(O)O[C@](NC(=O)[C@@H]3C=C4c5cccc6[nH]c(Br)c(c56)C[C@H]4N(C)C3)(C(C)C)C(=O)N12` [2-bromo-α-ergokryptine], in the experiment with Parkinsonism, the “usefulness in the treatment of Parkinsonism (in words)” value is reported as “useful in the treatment of Parkinsonism”. In addition, the “activity as prolactin inhibitors (in words)” value in the experiment on prolactin [1] is given as “activity as prolactin inhibitors”.
As for `CCCN1C[C@H](CSC)C[C@@H]2c3cccc4[nH]c(Br)c(c34)C[C@H]21` [D-2-bromo-6-n-propyl-8β-methylmercaptomethylergoline mesylate], the “Serum Prolactin Level” value with prolactin [2] (setting [4]) was 4.6 ± 0.4. Further, in the experiment with prolactin [2] (ip, 1 h), the inhibition in vivo at 0.05 mg/kg worked out at 89%. Further, in experiment [3] (IP, 1 mg./kg.), the “Duration of Effect” value came out at 1 h. The “Latency of Effect” value in experiment [3] (IP) was 5 min. Also, the responders at 1 mg/kg in experiment [3] (ip) came out at 100%.
On the same counts, the results for `CCN1C[C@H](CSC)C[C@@H]2c3cccc4[nH]cc(c34)C[C@H]21` [D-6-ethyl-8β-methylmercaptomethylergoline mesylate] are 3.9 ± 0.4, 91%, at least 2 h, 9 min and 100%.
Turning to `CN1CC(CC#N)C[C@@H]2c3cccc4[nH]cc(c34)C[C@H]21` (stereo partly drawn) [D-6-methyl-8-cyanomethylergoline], the “activity as prolactin inhibitors (in words)” value in the experiment with prolactin [1] was “activity as prolactin inhibitors”.
For the compound `CSC[C@@H]1C[C@@H]2c3cccc4[nH]cc(c34)C[C@H]2N(C)C1` [D-6-methyl-8β-methylmercaptomethylergoline mesylate, reference compound], in the experiment with prolactin [2] (ip, 1 h), the inhibition in vivo at 0.05 mg/kg came out at 58%. Further, in experiment [3] (IP, 1 mg./kg.), the “Duration of Effect” value is ~ 2 hours. Further, in experiment [3] (IP), the “Latency of Effect” value lay within 30 to 45 min. The responders at 1 mg/kg in experiment [3] (ip) came out at 50%.
Turning to `CCCN1C[C@H](CSC)C[C@@H]2c3cccc4[nH]cc(c34)C[C@H]21` [D-6-n-Propyl-8β-methylmercaptomethylergoline], the “serotonin agonist or antagonist (in words)” value with serotonin is “serotonin agonists rather than serotonin antagonists”.
`CCCN1CC(CSC)=C[C@@H]2c3cccc4[nH]cc(c34)C[C@H]21` [D-6-n-propyl-8-methylmercaptomethyl-8-ergolene maleate]: the “Serum Prolactin Level” value in the experiment on prolactin [2] (setting [4]) is reported as 3.9 ± 0.2. Further, the inhibition in vivo at 0.05 mg/kg with prolactin [2] (ip, 1 h) amounted to 91%. In experiment [3] (IP, 1 mg./kg.), the “Duration of Effect” value worked out at 1 h. Besides, the “Latency of Effect” value in experiment [3] (IP) was determined as 4 min. Also, in experiment [3] (ip), the responders at 1 mg/kg was determined as 100%.
On to `CCCN1C[C@H](COC)C[C@@H]2c3cccc4[nH]cc(c34)C[C@H]21` [D-6-n-propyl-8β-methoxymethylergoline methanesulfonate], for which the “Serum Prolactin Level” value in the experiment with prolactin [2] (setting [4]) worked out at 2.4 ± 0.2. Besides, the inhibition in vivo at 0.05 mg/kg in the experiment with prolactin [2] (ip, 1 h) stood at 96%. For the same compound, in experiment [3] (IP, 1 mg./kg.), the “Duration of Effect” value was at least 2 h. The “Latency of Effect” value in experiment [3] (IP) came out at 6 min. Besides, in experiment [3] (ip), the responders at 1 mg/kg is 100%.
For `CCCN1C[C@H](CSC)C=C2c3cccc4[nH]cc(c34)C[C@H]21` [D-6-n-propyl-8β-methylmercaptomethyl-9-ergolene], in the experiment on prolactin [2] (ip, 1 h), the inhibition in vivo at 0.05 mg/kg stood at 81%. Besides, the “Duration of Effect” value in experiment [3] (IP, 1 mg./kg.) is at least 2 h. The “Latency of Effect” value in experiment [3] (IP) was found to be 4 min. In experiment [3] (ip), the responders at 1 mg/kg stood at 100%.
`CCCN1C[C@H](CSC)C[C@@H]2c3cccc4[nH]cc(c34)C[C@H]21` [D-6-n-propyl-8β-methylmercaptomethylergoline methanesulfonate]: the inhibition in vivo at 0.05 mg/kg in the experiment with prolactin [2] (50 mcg/kg IP, 1 hour after treatment, versus control of same experiment) stood at 95%. For the same compound, the “times more potent as a prolactin inhibitor than the corresponding D-6-methyl compound” value in the experiment with prolactin [2] (from dose response curves) is reported as “about 100 times”. In experiment [3] (IP, 1 mg./kg., aqueous solution), the responders at 1 mg/kg turned out to be 100%. Also, the “times more potent in the turning behavior test than the corresponding D-6-methyl derivative” value in experiment [3] (from dose response curves) is given as “about 30 times”.
In the case of `CCCN1C[C@H](C[S+](C)[O-])C[C@@H]2c3cccc4[nH]cc(c34)C[C@H]21` (stereo partly drawn) [D-6-n-propyl-8β-methylsulfinylmethylergoline mesylate], in the experiment on prolactin [2] (ip, 1 h), the inhibition in vivo at 0.05 mg/kg is 92%. Besides, the “Duration of Effect” value in experiment [3] (IP, 1 mg./kg.) was 1 h. Moreover, in experiment [3] (IP), the “Latency of Effect” value turned out to be 7 min. Besides, in experiment [3] (ip), the responders at 1 mg/kg came out at 100%.
As for `CC(C)[C@H]1C(=O)N2CCC[C@H]2[C@]2(O)O[C@](NC(=O)[C@@H]3C[C@@H]4c5cccc6[nH]cc(c56)C[C@H]4N(C)C3)(C(C)C)C(=O)N12` [dihydroergocornine], the “activity as prolactin inhibitors (in words)” value in the experiment on prolactin [1] is given as “activity as prolactin inhibitors”.
On to `CC(C)[C@H]1C(=O)N2CCC[C@H]2[C@]2(O)O[C@](NC(=O)[C@@H]3C=C4c5cccc6[nH]cc(c56)C[C@H]4N(C)C3)(C(C)C)C(=O)N12` [ergocornine], for which, in the experiment on prolactin [1], the “activity as prolactin inhibitors (in words)” value is “activity as prolactin inhibitors”. The “dopamine receptor stimulation (in words)” value in the experiment on dopamine receptors is given as “stimulate dopamine receptors”.
Take `CN1C[C@H](CC#N)C[C@@H]2c3cccc4[nH]c(Cl)c(c34)C[C@H]21` [lergotrile]: the “usefulness in the treatment of Parkinsonism (in words)” value in the experiment with Parkinsonism was “useful in the treatment of Parkinsonism”.
